In patent US10736906B2, “Method to enhance tissue regeneration” (CHILDREN'S MEDICAL CENTER CORPORATION, priority 2006, dated 2020):
“Also recorded” adds a separate entry of the source.

How the values were obtained:
[1] = test system: endodermal and hepatic progenitor cells; assay: endodermal progenitors (foxA3) and liver size (lfabp) in zebrafish embryos, in situ hybridization; format: in vivo
Text: To determine whether the interaction of PGE2 and wnt/β-catenin signaling is a conserved regulator of stem and progenitor cell populations in other tissues, endodermal and hepatic progenitor cells were examined during zebrafish development. […] ( 51/56), as detected by expression of liver fatty acid binding protein (lfabp). […] This finding is supported by the detection of various components of PGE2 signaling in foxA3 positive cells.
The APC mutant zebrafish to model constitutive activation of the wnt signaling pathway, was used to characterize the effects of the wnt/PG interaction in foxA3+ endodermal progenitors at 48 hpf. APC+/− embryos have enhanced foxA3 expression and an increased liver bud ( 88/93) as well as increased liver size ( 68/75) compared to wild-type siblings. […] Both cyclinD1 and cmyc were co-regulated by wnt and prostaglandin during development which may indicate that PGE2 exerts its effects on stem cells through enhanced cell cycling and proliferation.
In situ hybridization: Paraformaldehyde (PFA)-fixed embryos were processed for in situ hybridization using standard zebrafish protocols such as those found on the internet at, for example, ZFIN: The Zebrafish Model Organism Database (hosted by the Univ. Oregon, Eugene, Oreg.). The following RNA probes were used to detect alterations in endodermal and liver development: GFP, LFABP, sterol carrier protein, transferrin, foxA3, insulin, trypsin, and IFABP. Changes in expression compared to wild-type controls are reported as the # altered/# scored per genotype; a minimum of three independent experiments were conducted per analysis.

[2] = test system: wnt activity; assay: wnt activity in TOP:dGFP wnt reporter zebrafish embryos (in situ hybridization and qPCR for GFP); format: in vivo; conditions: for wnt activity in the developing brain, liver and gut: developing zebrafish, TOP:dGFP
Text: An embodiment of the present invention provides for manipulation of the genetic interaction between PGE2 and wnt/β-catenin signaling, which regulates developmental specification of stem cells and regeneration. Briefly, prostaglandin (PG) E2 is required for the formation and function of hematopoietic stem cells (HSCs) in vivo, yet its mechanism of action in these cells is not completely understood.
The following RNA probes were used to detect alterations in endodermal and liver development: GFP, LFABP, sterol carrier protein, transferrin, foxA3, insulin, trypsin, and IFABP. Changes in expression compared to wild-type controls are reported as the # altered/# scored per genotype; a minimum of three independent experiments were conducted per analysis.

[3] = test system: β-catenin; assay: partial hepatectomy in wild-type and APCMin/+ mice (IHC, western blot, BrdU); format: in vivo
Text: Here, APC mutation caused increased total and nuclear β-catenin levels, particularly in the periportal region. […] These findings were confirmed by western blot. β-catenin may cause increased cell proliferation through its target cyclin D1.
Additionally, the present invention provides the first example that the activation of wnt/β-catenin signaling can enhance the rate of liver regeneration. […] Furthermore, the regeneratice advantage is evolutionarily conserved following hepatectomy in APCMin/+ mice. (Murine liver resections were performed as described in Green & Puder, 16 J. Investigational Surgery 99-102 (2003). Thus, the present invention provides for the manipulation of the wnt/β-catenin pathway as a way to enhance liver regeneration in patients, either after liver resection or during recovery from acute liver failure induced by toxins such as acetaminophen.

[4] = test system: liver tumor; assay: zebrafish DMBA liver tumor model, ultrasound biomicroscopy; format: in vivo
Text: Although zebrafish are a valuable vertebrate model to study carcinogenesis, noninvasive imaging remains challenging because adult fish are not transparent. Tumors can be readily detected in vivo, however, using high-resolution microscopic ultrasound. This technique facilitates tissue perfusion calculations, cellular aspirates, tumor progression analysis, and responses to treatment. Ultrasound biomicroscopy allows longitudinal studies of tumor development and real-time assessment of therapeutic effects in the zebrafish model. The visualization techniques employed herein are described by Goessling et al., 4(7) Nature Methods 551-53 (2007). […] Tumor occurrence was monitored over about five months. Tumors were identified by ultrasound biomicroscopy. The cancerous fish were then treated with indomethacin for twelve hours over night, every three days for one month, and the tumors visualized as described. Goessling et al., 2007. […] After one month of drug treatment, the fish appeared healthy, but were sacrificed to confirm the presence of cancer by histology. […] In another experiment, detailed in FIG. 10B and FIG. 10C, fish were treated every week for tumor prevention. Here, treatment with the carcinogen led to liver tumors in wild-type fish, and to twice as many tumors in APC+/− mutant fish.

[5] = test system: cKit+Sca1+ Lineage- (KSL) bone marrow cells; assay: murine transplantation assay with purified HSCs, CFU-S12; format: in vivo, mice; conditions: concurrent administration with BIO; indomethacin 1 mg/kg and 2.5 mg/kg
Protocol: To assess whether prostaglandin levels regulate wnt activity in HSCs, murine transplantation assays were performed utilizing purified HSCs. FACS-isolated cKit+Sca1+ Lineage—(KSL) bone marrow cells were transplanted into lethally irradiated recipients.

COc1ccc2c(c1)c(CC(=O)O)c(C)n2C(=O)c1ccc(Cl)cc1 [indomethacin]
decrease in liver size (# altered/# scored) ([1]; APC+/− embryos): 61/67
decrease in foxA3 positive progenitor cells (# altered/# scored) ([1]; APC+/− embryos, 48 hpf): 33/39
decreased foxA3 expression (# altered/# scored) ([1]; wild-type embryos): 67/71
smaller liver, lfabp expression (# altered/# scored) ([1]; wild-type embryos, 72 h.p.f.): 51/56
liver size / liver development compared to controls ([1]; zebrafish embryos, by 72 hours post-fertilization): marked reduction in liver size
wnt activity in the developing brain, liver and gut [2]: diminished wnt activity
wnt activity in the developing brain, liver and gut ([2]; listed as indomethicin): virtual absence of wnt signaling
wnt activity abolished in the AGM and GFP expression markedly decreased globally (# altered/# scored) ([2]; indomethacin 10 μM): 72/87
β-catenin levels ([3]; 2.5 mg/kg bid sq, both genotypes): decreased β-catenin levels significantly
Cyclin D1 levels and cell proliferation (BrdU incorporation) ([3]; APCMin/+ mice): markedly diminished
P-GSK3b (serine 9), IHC ([3]; wild-type and APC+/− mice, confirmed by western blot): decreased amounts
solid portion of the tumor, ultrasound ([4]; after six treatments): decreased in size
tumor size, ultrasound ([4]; after ten treatments): shrunk substantially
tumor size, ultrasound ([4]; after three treatments (12 h overnight every three days)): tumor size increased
liver tumor formation (prevention) ([4]; weekly treatment, wild-type and especially APC+/− fish): decreased tumor formation
effect on BIO-enhanced CFU-S number [5]: blocks this effect; also recorded: diminished CFU-S number back to baseline levels
